Laboratory results: PubChem BioAssay AID2060599 (Molecular Pharmacology Branch, DTP, NCI, 2025)

tested on: 817829-284-R-J1-PDC complex spheroids, viability; test: Anticancer human tumor 817829-284-R-J1-PDC patient-derived colon adenocarcinoma cell line growth inhibition [CLK]; settings: curve of first compound; second compound 0.0316 µM
Method in brief: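 Multi-cell-type spheroids combined patient-derived tumor cells with HUVEC endothelial cells and human mesenchymal stem cells. Paired agents were dosed in half-log steps down from about clinical Cmax, or from 10 microM where Cmax was unknown.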
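Note: spheroids exposed to the agents for seven days before readout.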

`CCc1c2c(nc3ccc(O)cc13)-c1cc3c(c(=O)n1C2)COC(=O)[C@]3(O)CC` + CNC(=O)c1ccc(Nc2nc(OC3CCCC3)c3c(-c4ccc5nc(C)oc5c4)c[nH]c3n2)c(OC)c1 and `Cn1ncnc1[C@H]1c2n[nH]c(=O)c3cc(F)cc(c23)N[C@@H]1c1ccc(F)cc1` + CNC(=O)c1ccc(Nc2nc(OC3CCCC3)c3c(-c4ccc5nc(C)oc5c4)c[nH]c3n2)c(OC)c1 cannot be ordered by IC50: < 3.16 nM for the first, < 0.316 nM for the second.

`Nc1ccn(C2OC(CO)C(O)C2(F)F)c(=O)n1` (stereo unspecified) + CNC(=O)c1ccc(Nc2nc(OC3CCCC3)c3c(-c4ccc5nc(C)oc5c4)c[nH]c3n2)c(OC)c1 and `O=C(c1cc(Cc2n[nH]c(=O)c3ccccc23)ccc1F)N1CCN(C(=O)C2CC2)CC1` + CNC(=O)c1ccc(Nc2nc(OC3CCCC3)c3c(-c4ccc5nc(C)oc5c4)c[nH]c3n2)c(OC)c1 cannot be ordered by IC50: < 31.6 nM for the first, < 31.6 nM for the second.

`O=c1[nH]cc(F)c(=O)[nH]1` + CNC(=O)c1ccc(Nc2nc(OC3CCCC3)c3c(-c4ccc5nc(C)oc5c4)c[nH]c3n2)c(OC)c1 was tested, and the IC50 was < 31.6 nM.

same assay, conditions: curve of first compound; second compound 0.1 µM

`CCc1c2c(nc3ccc(O)cc13)-c1cc3c(c(=O)n1C2)COC(=O)[C@]3(O)CC` + CNC(=O)c1ccc(Nc2nc(OC3CCCC3)c3c(-c4ccc5nc(C)oc5c4)c[nH]c3n2)c(OC)c1 and `Cn1ncnc1[C@H]1c2n[nH]c(=O)c3cc(F)cc(c23)N[C@@H]1c1ccc(F)cc1` + CNC(=O)c1ccc(Nc2nc(OC3CCCC3)c3c(-c4ccc5nc(C)oc5c4)c[nH]c3n2)c(OC)c1 cannot be ordered by IC50: < 3.16 nM for the first, < 0.316 nM for the second.

`Nc1ccn(C2OC(CO)C(O)C2(F)F)c(=O)n1` (stereo unspecified) + CNC(=O)c1ccc(Nc2nc(OC3CCCC3)c3c(-c4ccc5nc(C)oc5c4)c[nH]c3n2)c(OC)c1 and `O=C(c1cc(Cc2n[nH]c(=O)c3ccccc23)ccc1F)N1CCN(C(=O)C2CC2)CC1` + CNC(=O)c1ccc(Nc2nc(OC3CCCC3)c3c(-c4ccc5nc(C)oc5c4)c[nH]c3n2)c(OC)c1 cannot be ordered by IC50: < 31.6 nM for the first, < 31.6 nM for the second.

With `O=c1[nH]cc(F)c(=O)[nH]1` + CNC(=O)c1ccc(Nc2nc(OC3CCCC3)c3c(-c4ccc5nc(C)oc5c4)c[nH]c3n2)c(OC)c1 the IC50 was < 31.6 nM.

same assay, conditions: curve of first compound; second compound 0.316 µM

`CCc1c2c(nc3ccc(O)cc13)-c1cc3c(c(=O)n1C2)COC(=O)[C@]3(O)CC` + CNC(=O)c1ccc(Nc2nc(OC3CCCC3)c3c(-c4ccc5nc(C)oc5c4)c[nH]c3n2)c(OC)c1 and `Cn1ncnc1[C@H]1c2n[nH]c(=O)c3cc(F)cc(c23)N[C@@H]1c1ccc(F)cc1` + CNC(=O)c1ccc(Nc2nc(OC3CCCC3)c3c(-c4ccc5nc(C)oc5c4)c[nH]c3n2)c(OC)c1 cannot be ordered by IC50: < 3.16 nM for the first, < 0.316 nM for the second.

`Nc1ccn(C2OC(CO)C(O)C2(F)F)c(=O)n1` (stereo unspecified) + CNC(=O)c1ccc(Nc2nc(OC3CCCC3)c3c(-c4ccc5nc(C)oc5c4)c[nH]c3n2)c(OC)c1 and `O=C(c1cc(Cc2n[nH]c(=O)c3ccccc23)ccc1F)N1CCN(C(=O)C2CC2)CC1` + CNC(=O)c1ccc(Nc2nc(OC3CCCC3)c3c(-c4ccc5nc(C)oc5c4)c[nH]c3n2)c(OC)c1 cannot be ordered by IC50: < 31.6 nM for the first, < 31.6 nM for the second.

With `O=c1[nH]cc(F)c(=O)[nH]1` + CNC(=O)c1ccc(Nc2nc(OC3CCCC3)c3c(-c4ccc5nc(C)oc5c4)c[nH]c3n2)c(OC)c1 the IC50 was < 31.6 nM.

same assay, conditions: curve of first compound; second compound 1 µM

`CCc1c2c(nc3ccc(O)cc13)-c1cc3c(c(=O)n1C2)COC(=O)[C@]3(O)CC` + CNC(=O)c1ccc(Nc2nc(OC3CCCC3)c3c(-c4ccc5nc(C)oc5c4)c[nH]c3n2)c(OC)c1 and `Cn1ncnc1[C@H]1c2n[nH]c(=O)c3cc(F)cc(c23)N[C@@H]1c1ccc(F)cc1` + CNC(=O)c1ccc(Nc2nc(OC3CCCC3)c3c(-c4ccc5nc(C)oc5c4)c[nH]c3n2)c(OC)c1 cannot be ordered by IC50: < 3.16 nM for the first, < 0.316 nM for the second.

`Nc1ccn(C2OC(CO)C(O)C2(F)F)c(=O)n1` (stereo unspecified) + CNC(=O)c1ccc(Nc2nc(OC3CCCC3)c3c(-c4ccc5nc(C)oc5c4)c[nH]c3n2)c(OC)c1 and `O=C(c1cc(Cc2n[nH]c(=O)c3ccccc23)ccc1F)N1CCN(C(=O)C2CC2)CC1` + CNC(=O)c1ccc(Nc2nc(OC3CCCC3)c3c(-c4ccc5nc(C)oc5c4)c[nH]c3n2)c(OC)c1 cannot be ordered by IC50: < 31.6 nM for the first, < 31.6 nM for the second.

With `O=c1[nH]cc(F)c(=O)[nH]1` + CNC(=O)c1ccc(Nc2nc(OC3CCCC3)c3c(-c4ccc5nc(C)oc5c4)c[nH]c3n2)c(OC)c1 the IC50 was < 31.6 nM.

same assay, conditions: curve of first compound; second compound 3.16 µM

`CCc1c2c(nc3ccc(O)cc13)-c1cc3c(c(=O)n1C2)COC(=O)[C@]3(O)CC` + CNC(=O)c1ccc(Nc2nc(OC3CCCC3)c3c(-c4ccc5nc(C)oc5c4)c[nH]c3n2)c(OC)c1 and `Cn1ncnc1[C@H]1c2n[nH]c(=O)c3cc(F)cc(c23)N[C@@H]1c1ccc(F)cc1` + CNC(=O)c1ccc(Nc2nc(OC3CCCC3)c3c(-c4ccc5nc(C)oc5c4)c[nH]c3n2)c(OC)c1 cannot be ordered by IC50: < 3.16 nM for the first, < 0.316 nM for the second.

`Nc1ccn(C2OC(CO)C(O)C2(F)F)c(=O)n1` (stereo unspecified) + CNC(=O)c1ccc(Nc2nc(OC3CCCC3)c3c(-c4ccc5nc(C)oc5c4)c[nH]c3n2)c(OC)c1 and `O=C(c1cc(Cc2n[nH]c(=O)c3ccccc23)ccc1F)N1CCN(C(=O)C2CC2)CC1` + CNC(=O)c1ccc(Nc2nc(OC3CCCC3)c3c(-c4ccc5nc(C)oc5c4)c[nH]c3n2)c(OC)c1 cannot be ordered by IC50: < 31.6 nM for the first, < 31.6 nM for the second.

`O=c1[nH]cc(F)c(=O)[nH]1` + CNC(=O)c1ccc(Nc2nc(OC3CCCC3)c3c(-c4ccc5nc(C)oc5c4)c[nH]c3n2)c(OC)c1 was tested, and the IC50 was < 31.6 nM.

same assay, conditions: curve of first compound; second compound 10 µM

`CCc1c2c(nc3ccc(O)cc13)-c1cc3c(c(=O)n1C2)COC(=O)[C@]3(O)CC` + CNC(=O)c1ccc(Nc2nc(OC3CCCC3)c3c(-c4ccc5nc(C)oc5c4)c[nH]c3n2)c(OC)c1 was tested, and the IC50 was < 3.16 nM.
